From the NIST ThermoML archive (doi:10.1016/j.jct.2011.08.008)

Assay: xn = mol fraction of the nth substance listed
Conditions: 101 kPa, Liquid, Vibrating tube method

CCCCCCCC[n+]1ccn(C)c1.[Cl-] [1-methyl-3-octylimidazolium chloride] + OCCO
mass density [kg/m3]
Conditions	298.15 K	308.15 K	318.15 K
x1 = 0.0077	1106.07	1098.89	1091.83
x1 = 0.0589	1085.93	1078.94	1072.21
x1 = 0.119	1068.7	1061.98	1055.33
x1 = 0.2112	1050.79	1044.34	1037.95
x1 = 0.2985	1039.53	1033.27	1026.92
x1 = 0.4021	1030.4	1024.26	1017.91
x1 = 0.5118	1023.63	1017.52	1011.2
x1 = 0.6041	1019.49	1013.41	1007.18
x1 = 0.6999	1016.21	1010.14	1003.94
x1 = 0.7837	1013.92	1007.87	1001.74
x1 = 0.8328	1012.75	1006.75	1000.65
x1 = 0.9583	1010.27	1004.34	998.43
x1 = 1	1009.56	1003.74	997.92

CCCCn1cc[n+](C)c1.COS(=O)(=O)[O-] [1-butyl-3-methylimidazolium methyl sulfate] + OCCO
mass density [kg/m3]
Conditions	298.15 K	308.15 K	318.15 K
x1 = 0.0052	1110.66	1103.5	1096.12
x1 = 0.0512	1119.06	1111.91	1104.2
x1 = 0.1106	1128.96	1121.84	1114.04
x1 = 0.2135	1145.36	1138.27	1130.75
x1 = 0.3018	1156.55	1149.5	1142.35
x1 = 0.4059	1167.63	1160.69	1153.59
x1 = 0.5066	1176.9	1170.01	1162.97
x1 = 0.6163	1185.67	1178.75	1171.77
x1 = 0.7	1191.66	1184.71	1177.89
x1 = 0.8408	1199.42	1192.62	1185.85
x1 = 0.9244	1202.97	1196.25	1189.52
x1 = 1	1205.84	1199.25	1192.7

CCCCn1cc[n+](C)c1.[Cl-] [1-butyl-3-methylimidazolium chloride] + OCCO
mass density [kg/m3]
Conditions	298.15 K	308.15 K	318.15 K
x1 = 0.0132	1108.21	1101.08	1093.97
x1 = 0.0294	1106.1	1099.21	1092.21
x1 = 0.0484	1104.02	1097.19	1090.29
x1 = 0.1028	1098.95	1092.29	1085.61
x1 = 0.2101	1092.39	1085.44	1079.22
x1 = 0.3094	1088.58	1081.93	1075.58
x1 = 0.4202	1085.81	1079.23	1072.98
x1 = 0.4947	1084.46	1078.12	1072
x1 = 0.5992	1083.24	1077.18	1071.11
x1 = 0.7117	1082.47	1076.69	1070.76
x1 = 0.8143	1082.35	1076.51	1070.75
x1 = 0.9126	1082.27	1076.49	1070.88
x1 = 1	1082.01	1076.51	1071.04
